Test results taken from publication PMC10709440, “High-throughput ligand profile characterization in novel cell lines expressing seven heterologous insect olfactory receptors for the detection of volatile plant biomarkers” (Scientific Reports, 2023).
Like-named read-outs stand apart in the source and are kept apart here.

Key:
OR13a = tested on: OR13a; parameters: method as in earlier work; conditions: DoOR database value, ref DoOR, cited from earlier work
OR47a = tested on: OR47a; parameters: method as in earlier work; conditions: DoOR database value; ref DoOR; cited from earlier work
Drosophila OR85b = molecular target: T1, Drosophila OR85b (Drosophila melanogaster, UniProt Q9VHQ7); assay: Calcium ion fluorescence (GCaMP6) assay, OR85b stable HEK293 cell line; assay type: cell-based; conditions: for Average response: VUAA1-normalized response, mean of biological replicates
T1 construct: expressed in transfected cells
T1 sequence (Q9VHQ7 1-390): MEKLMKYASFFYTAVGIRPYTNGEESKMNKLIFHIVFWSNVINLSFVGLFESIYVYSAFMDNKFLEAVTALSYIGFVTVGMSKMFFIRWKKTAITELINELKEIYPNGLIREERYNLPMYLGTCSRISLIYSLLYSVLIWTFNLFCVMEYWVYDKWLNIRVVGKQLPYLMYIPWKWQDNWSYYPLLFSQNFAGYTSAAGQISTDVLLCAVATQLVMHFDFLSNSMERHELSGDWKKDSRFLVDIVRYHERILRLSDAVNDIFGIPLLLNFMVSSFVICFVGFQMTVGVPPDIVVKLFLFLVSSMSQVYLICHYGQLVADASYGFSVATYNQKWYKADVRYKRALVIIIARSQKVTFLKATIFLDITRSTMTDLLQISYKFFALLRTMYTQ
T1 sequence (Q9VNB5 1-486 partner): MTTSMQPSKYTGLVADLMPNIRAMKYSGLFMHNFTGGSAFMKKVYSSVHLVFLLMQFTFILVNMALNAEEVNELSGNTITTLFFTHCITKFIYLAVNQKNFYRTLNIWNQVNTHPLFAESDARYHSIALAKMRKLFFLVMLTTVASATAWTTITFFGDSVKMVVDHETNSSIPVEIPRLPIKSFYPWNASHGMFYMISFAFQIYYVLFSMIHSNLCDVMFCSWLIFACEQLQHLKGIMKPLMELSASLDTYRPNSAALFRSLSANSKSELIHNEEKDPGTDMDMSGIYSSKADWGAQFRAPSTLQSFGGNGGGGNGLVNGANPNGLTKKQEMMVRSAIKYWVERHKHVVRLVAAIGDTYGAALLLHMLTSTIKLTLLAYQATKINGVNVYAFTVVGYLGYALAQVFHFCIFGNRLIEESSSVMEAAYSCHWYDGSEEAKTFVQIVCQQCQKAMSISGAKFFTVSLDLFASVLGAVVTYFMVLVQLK
Description: These VUAA1 normalized ∆F values were used to compare the different receptors and ligands.
The concentration-dependent effect of the reference ligands on their cognate cell lines was examined in more detail. Twelve different ligand concentrations were measured on each cell line in an overall 0.01 μM to 100 μM concentration range with 5 repetitions with three technical replicates each time.
Twelve thousand to 18,000 cells were plated into each well of a black wall, transparent bottom 384-well microplate (Greiner) 48 h or 72 h before the measurements and were simultaneously treated with 1 μg/mL doxycycline. […] The plate has 24 columns, thus we could record responses in up to eight different cell lines in each plate. On the day of the experiment, the growth medium was replaced with 20 µL assay buffer/well (140 mM NaCl, 5 mM KCl, 2 mM CaCl2, 1 mM MgCl2, 5 mM HEPES-Na, 20 mM glucose, pH 7.3, 340 mOsm). […] Baseline fluorescence (F0) was recorded for 5 s, after which 7 µL VOC buffer (140 mM NaCl, 5 mM KCl, 2 mM CaCl2, 1 mM MgCl2, 5 mM HEPES-Na, 31 mM glucose, 0.1% DMSO, pH 7.3, 340 mOsm) was injected into each well in one row and the fluorescence response was recorded for an additional 30 s, at a rate of one read/sec. VOC solutions (VOC buffer with 4× concentration of the final measured VOC concentration, 9 µL/well was injected) were measured on the same wells in a second round with the same protocol. Each individual concentration of a specific VOC sample was recorded in three wells for the same cell line on the same microplate. The raw data were exported in xls file format, F0 and FMAX values, and the fluorescence intensity changes (∆F) were calculated in Excel (Microsoft) (Supplementary file Data summary.xlsx) using the following equation: ΔF=FMAX-F0/F0 (see also Fig. 1C). On each plate, we recorded the response of each cell line to 50 µM VUAA1. The average of these ∆F values of each cell line were used to calculate the VUAA1-normalized values for the rest of the plate, by dividing VOC response ∆F values by the average VUAA1 response ∆F value of the corresponding OR cell line. Each VOC-OR combination was measured three times as technical replicates. […] The average of these replicates were used as one ∆F and VUAA1-normalized ∆F in the following analysis.
In the next rows we tested the reference VOCs (or other VOCs known to activate the corresponding cell lines), in order to test if all cell lines are responsive. The remaining rows were used to test VOCs with unknown effect.
The recorded FMAX, F0, ∆F, VUAA1-normalized ∆F values, as well as the OR name, the name of the tested sample, and the final concentration for each well were copied into supplementary file Data summary.xlsx, that was used to summarize all the plates recorded. Here, the averages of the measurements were calculated for each receptor-VOC-concentration combination.

OR10a = tested on: OR10a; parameters: method as in earlier work; conditions: DoOR database value, ref DoOR, cited from earlier work
OR49b = tested on: OR49b; parameters: method as in earlier work; conditions: DoOR database value; ref DoOR; cited from earlier work
OR85b = tested on: OR85b; parameters: method as in earlier work; conditions: DoOR database value; ref DoOR; cited from earlier work
OR98a = tested on: OR98a; parameters: method as in earlier work; conditions: DoOR database value; ref DoOR; cited from earlier work
[1] = HEK293, read-out: OR85b response (VUAA1-normalized response)
[2] = concentration 1, normalized fluorescence change, values below 0.05 threshold given as 0
[3] = concentration 10, normalized fluorescence change, values below 0.05 threshold given as 0
[4] = concentration 100, normalized fluorescence change, values below 0.05 threshold given as 0
[5] = HEK293, read-out: OR85b Average response (VUAA1-normalized)
[6] = ligand concentration 1 (unit not given), threshold 0.05, below shown as 0
[7] = ligand concentration 10 (unit not given), threshold 0.05, below shown as 0
[8] = ligand concentration 100 (unit not given), threshold 0.05, below shown as 0

Structure (SMILES) | OR13a DoOR response (OR13a) | OR47a DoOR response (OR47a) | activation at 1 µM (Drosophila OR85b; [1]) [%] | activation at 10 µM (Drosophila OR85b; [1]) [%] | activation at 100 µM (Drosophila OR85b; [1]) [%] | Average response (Drosophila OR85b; OR85b cell line, cc. 1 µM) | Average response (Drosophila OR85b; OR85b cell line, cc. 10 µM) | Average response (Drosophila OR85b; OR85b cell line, cc. 100 µM) | DF norm AVERAGE OR85b (Drosophila OR85b; [2]) | DF norm AVERAGE OR85b (Drosophila OR85b; [3]) | DF norm AVERAGE OR85b (Drosophila OR85b; [4]) | OR10a DoOR response (OR10a) | OR49b DoOR response (OR49b) | OR85b DoOR response (OR85b) | OR98a DoOR response (OR98a) | DF norm AVERAGE OR85b (Drosophila OR85b; [6]) | DF norm AVERAGE OR85b (Drosophila OR85b; [7]) | DF norm AVERAGE OR85b (Drosophila OR85b; [8]) | further results
CCCCCCCO [1-heptanol] | 0.28 | 0.095 | 0 | 0 | 0 | 0.00 | 0.00 | 0.00 | 0 | 0 | 0 | – | – | – | – | – | – | – | –
CCCCCC(C)O (stereo not shown) [2-heptanol] | 0.67 | – | 0 | 0 | 32 | 0.0455 | 0.05 | 0.32 | 0 | 0 | 0.3169 | 0.009 | – | – | – | – | – | – | activation at 1 µM (Drosophila OR85b; [5]): 5%; activation at 10 µM (Drosophila OR85b; [5]): 5%; activation at 100 µM (Drosophila OR85b; [5]): 32%
CCCCC(C)O (stereo not shown) [2-hexanol] | 0.58 | – | 0 | 0 | 0 | 0.05 | 0.00 | 0.00 | 0 | 0 | 0 | 0.14 | – | – | – | – | – | – | –
CCCCC(C)=O [2-hexanone] | 0.13 | – | 0 | 6 | 0 | 0.00 | 0.06 | 0.0338 | 0 | 0.05777 | 0 | 0.10 | – | – | – | – | – | – | –
C=C1CC/C=C(\C)CC[C@@H]2[C@@H]1CC2(C)C [(-)-trans-caryophyllene] | 0.0851 | -0.002 | 0 | 0 | 0 | 0.00 | 0.00 | 0.0238 | 0 | 0 | 0 | -0.002 | 0.001 | 0.053 | -0.004 | – | – | – | –
C=C(C)[C@H]1CC=C(C)CC1 [(R)-(+)-limonene] | 0.057 | – | – | – | – | 0.0426 | 0.03 | 0.00 | 0 | 0 | 0 | 0.07 | 0.03 | 0.034 | 0.085 | – | – | – | OR85b response (VUAA1-normalized response) (Drosophila OR85b; VOC concentration 1 μM): 0.00; OR85b response (VUAA1-normalized response) (Drosophila OR85b; VOC concentration 10 μM): 0.00; OR85b response (VUAA1-normalized response) (Drosophila OR85b; VOC concentration 100 μM): 0.00
CC/C=C\CCO [E-3-hexenol] | – | 0.065 | – | – | – | – | – | – | – | – | – | 0.04 | 0.057 | 0.75 | 0.44 | – | – | – | OR85b response (VUAA1-normalized response) (Drosophila OR85b; VOC concentration 1 μM): 0.00; OR85b response (VUAA1-normalized response) (Drosophila OR85b; VOC concentration 10 μM): 0.00; OR85b response (VUAA1-normalized response) (Drosophila OR85b; VOC concentration 100 μM): 0.00
CC/C=C\CCOC(C)=O [Z-3-hexenyl acetate] | – | – | – | – | – | – | – | – | – | – | – | – | – | – | – | – | – | – | OR13a DoOR response (OR13a; OR13a): 0.42; OR10a DoOR response (OR10a; OR10a): 0.004; OR85b response (VUAA1-normalized) at 1 μM (Drosophila OR85b; OR85b cell line, VOC concentration 1 μM): 0.15; OR85b response (VUAA1-normalized) at 10 μM (Drosophila OR85b; OR85b cell line, VOC concentration 10 μM): 0.00; OR85b response (VUAA1-normalized) at 100 μM (Drosophila OR85b; OR85b cell line, VOC concentration 100 μM): 0.00
C=C1CCC2CC1C2(C)C (stereo not drawn) [beta-pinene] | – | -0.021 | 0 | 10 | 9 | 0.00 | 0.10 | 0.09 | – | – | – | -0.005 | 0.011 | 0.053 | -0.003 | 0 | 0.09683 | 0.0913 | –
CCCCCC(=O)OCC [ethyl hexanoate] | – | 0.42 | 0 | 0 | 0 | 0.00 | 0.05 | 0.0232 | – | – | – | -0.012 | 0.007 | 0.24 | 0.17 | 0 | 0 | 0 | –
CC(=O)OCC(C)C [isobutyl acetate] | – | 0.58 | 0 | 0 | 0 | 0.044 | 0.00 | 0.03 | – | – | – | 0.35 | 0.006 | 0.39 | 0.67 | 0 | 0 | 0 | –
C=C(C)[C@H]1CC=C(C)CC1 [limonene] | – | 0.056 | – | – | – | 0.07 | 0.09 | 0.0644 | – | – | – | -0.001 | 0.016 | 0.10 | 0.09 | 0.07022 | 0.08814 | 0.06443 | OR85b response (VUAA1-normalized response) (Drosophila OR85b; VOC concentration 1 μM): 0.07; OR85b response (VUAA1-normalized response) (Drosophila OR85b; VOC concentration 10 μM): 0.09; OR85b response (VUAA1-normalized response) (Drosophila OR85b; VOC concentration 100 μM): 0.0644
